#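 In this assay, cells in 96-well plates receive the compound at five concentrations for 48 hours. Endpoints are linearly interpolated between the surrounding concentrations. Abbreviation: GI50, concentration required for 50% inhibition of growth. TGI marks complete inhibition of growth.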
# Assays:
# Assay in all cases: NCI anticancer screen, dose series, 48 h
# SK-MEL-28 melanoma = test system: SK-MEL-28 melanoma
# UO-31 renal = test system: UO-31 renal
# T-47D breast = test system: T-47D breast
# SR leukemia = test system: SR leukemia
# SF-268 CNS = test system: SF-268 CNS
# HCT-116 colon = test system: HCT-116 colon
# NCI-H522 lung = test system: NCI-H522 lung
# UACC-257 melanoma = test system: UACC-257 melanoma
# NCI/ADR-RES ovarian = test system: NCI/ADR-RES ovarian
# MDA-MB-231 breast = test system: MDA-MB-231 breast
# MALME-3M melanoma = test system: MALME-3M melanoma
# UACC-62 melanoma = test system: UACC-62 melanoma
# HCT-15 colon = test system: HCT-15 colon
# MDA-MB-468 breast = test system: MDA-MB-468 breast
# LOX IMVI melanoma = test system: LOX IMVI melanoma
# SW-620 colon = test system: SW-620 colon
# U251 CNS = test system: U251 CNS
# DU-145 prostate = test system: DU-145 prostate
# SNB-75 CNS = test system: SNB-75 CNS
# OVCAR-3 ovarian = test system: OVCAR-3 ovarian
# CCRF-CEM leukemia = test system: CCRF-CEM leukemia
# SF-295 CNS = test system: SF-295 CNS
# NCI-H226 lung = test system: NCI-H226 lung
# K-562 leukemia = test system: K-562 leukemia
# TK-10 renal = test system: TK-10 renal
# COLO 205 colon = test system: COLO 205 colon
# HS 578T breast = test system: HS 578T breast
# SF-539 CNS = test system: SF-539 CNS
# SK-MEL-5 melanoma = test system: SK-MEL-5 melanoma
# RPMI-8226 leukemia = test system: RPMI-8226 leukemia
# BT-549 breast = test system: BT-549 breast
# HT29 colon = test system: HT29 colon
# MDA-MB-435 = test system: MDA-MB-435
# MCF7 breast = test system: MCF7 breast
# SN12C renal = test system: SN12C renal
# EKVX NSCLC = test system: EKVX NSCLC
# OVCAR-8 ovarian = test system: OVCAR-8 ovarian
# CAKI-1 renal = test system: CAKI-1 renal
# NCI-H23 lung = test system: NCI-H23 lung
# 786-0 renal = test system: 786-0 renal
# M14 melanoma = test system: M14 melanoma
# HCC-2998 colon = test system: HCC-2998 colon
# SK-OV-3 ovarian = test system: SK-OV-3 ovarian
# RXF 393 renal = test system: RXF 393 renal
# MOLT-4 leukemia = test system: MOLT-4 leukemia
# HOP-92 NSCLC = test system: HOP-92 NSCLC
# IGROV1 ovarian = test system: IGROV1 ovarian
# SK-MEL-2 melanoma = test system: SK-MEL-2 melanoma
# A498 renal = test system: A498 renal
# HL-60(TB) leukemia = test system: HL-60(TB) leukemia
# NCI-H460 lung = test system: NCI-H460 lung
# OVCAR-4 ovarian = test system: OVCAR-4 ovarian
# HOP-62 NSCLC = test system: HOP-62 NSCLC
# ACHN renal = test system: ACHN renal
# SNB-19 CNS = test system: SNB-19 CNS
# OVCAR-5 ovarian = test system: OVCAR-5 ovarian
# PC-3 prostate = test system: PC-3 prostate
# A549 NSCLC = test system: A549 NSCLC
# KM12 colon = test system: KM12 colon
structure (smiles),measurement,setting,value
c1ccc(C(=C(c2ccc(OCCN3CCCCC3)cc2)c2ccc(OCCN3CCCCC3)cc2)C2CCCC2)cc1,GI50,SK-MEL-28 melanoma,3.03 µM
same,TGI,SK-MEL-28 melanoma,5.81 µM
same,GI50,UO-31 renal,> 18 µM
same,TGI,UO-31 renal,> 18 µM
same,GI50,T-47D breast,3.98 µM
same,TGI,T-47D breast,15.4 µM
same,GI50,SR leukemia,2.99 µM
same,TGI,SR leukemia,8.46 µM
same,GI50,SF-268 CNS,3.53 µM
same,TGI,SF-268 CNS,9.09 µM
same,GI50,HCT-116 colon,3.48 µM
same,TGI,HCT-116 colon,6.82 µM
same,GI50,NCI-H522 lung,2.61 µM
same,TGI,NCI-H522 lung,5.9 µM
same,GI50,UACC-257 melanoma,4.11 µM
same,TGI,UACC-257 melanoma,12 µM
same,GI50,NCI/ADR-RES ovarian,> 18 µM
same,TGI,NCI/ADR-RES ovarian,> 18 µM
same,GI50,MDA-MB-231 breast,2.94 µM
same,TGI,MDA-MB-231 breast,6.01 µM
same,GI50,MALME-3M melanoma,2.69 µM
same,TGI,MALME-3M melanoma,5.1 µM
same,GI50,UACC-62 melanoma,2.9 µM
same,TGI,UACC-62 melanoma,5.35 µM
same,GI50,HCT-15 colon,> 18 µM
same,TGI,HCT-15 colon,> 18 µM
same,GI50,MDA-MB-468 breast,2.38 µM
same,TGI,MDA-MB-468 breast,5.19 µM
same,GI50,LOX IMVI melanoma,2.94 µM
same,TGI,LOX IMVI melanoma,5.43 µM
same,GI50,SW-620 colon,2.76 µM
same,TGI,SW-620 colon,5.35 µM
same,GI50,U251 CNS,3.56 µM
same,TGI,U251 CNS,8.23 µM
same,GI50,DU-145 prostate,4.25 µM
same,TGI,DU-145 prostate,10.5 µM
same,GI50,SNB-75 CNS,1.97 µM
same,TGI,SNB-75 CNS,13.8 µM
same,GI50,OVCAR-3 ovarian,3.05 µM
same,TGI,OVCAR-3 ovarian,5.85 µM
same,GI50,CCRF-CEM leukemia,3 µM
same,TGI,CCRF-CEM leukemia,6.55 µM
same,GI50,SF-295 CNS,5.14 µM
same,TGI,SF-295 CNS,> 18 µM
same,GI50,NCI-H226 lung,3.32 µM
same,TGI,NCI-H226 lung,13.3 µM
same,GI50,K-562 leukemia,1.64 µM
same,TGI,K-562 leukemia,> 18 µM
same,GI50,TK-10 renal,8.11 µM
same,TGI,TK-10 renal,> 18 µM
same,GI50,COLO 205 colon,3.24 µM
same,TGI,COLO 205 colon,6.71 µM
same,GI50,HS 578T breast,3.76 µM
same,TGI,HS 578T breast,11.8 µM
same,GI50,SF-539 CNS,2.88 µM
same,TGI,SF-539 CNS,5.4 µM
same,GI50,SK-MEL-5 melanoma,2.73 µM
same,TGI,SK-MEL-5 melanoma,5.23 µM
same,GI50,RPMI-8226 leukemia,3.44 µM
same,TGI,RPMI-8226 leukemia,8.24 µM
same,GI50,BT-549 breast,2.8 µM
same,TGI,BT-549 breast,5.38 µM
same,GI50,HT29 colon,3.1 µM
same,TGI,HT29 colon,6.24 µM
same,GI50,MDA-MB-435,2.59 µM
same,TGI,MDA-MB-435,5.37 µM
same,GI50,MCF7 breast,1.93 µM
same,TGI,MCF7 breast,4.52 µM
same,GI50,SN12C renal,4.08 µM
same,TGI,SN12C renal,11.8 µM
same,GI50,EKVX NSCLC,8.68 µM
same,TGI,EKVX NSCLC,> 18 µM
same,GI50,OVCAR-8 ovarian,6.93 µM
same,TGI,OVCAR-8 ovarian,> 18 µM
same,GI50,CAKI-1 renal,7.87 µM
same,TGI,CAKI-1 renal,> 18 µM
same,GI50,NCI-H23 lung,5.16 µM
same,TGI,NCI-H23 lung,17.9 µM
same,GI50,786-0 renal,5.54 µM
same,TGI,786-0 renal,> 18 µM
same,GI50,M14 melanoma,3.43 µM
same,TGI,M14 melanoma,8.04 µM
same,GI50,HCC-2998 colon,2.83 µM
same,TGI,HCC-2998 colon,5.33 µM
same,GI50,SK-OV-3 ovarian,4.27 µM
same,TGI,SK-OV-3 ovarian,11.8 µM
same,GI50,RXF 393 renal,2.91 µM
same,TGI,RXF 393 renal,7.11 µM
same,GI50,MOLT-4 leukemia,2.59 µM
same,TGI,MOLT-4 leukemia,7.72 µM
same,GI50,HOP-92 NSCLC,2.57 µM
same,TGI,HOP-92 NSCLC,5.85 µM
same,GI50,IGROV1 ovarian,2.98 µM
same,TGI,IGROV1 ovarian,5.65 µM
same,GI50,SK-MEL-2 melanoma,3.78 µM
same,TGI,SK-MEL-2 melanoma,9.2 µM
same,GI50,A498 renal,> 18 µM
same,TGI,A498 renal,> 18 µM
same,GI50,HL-60(TB) leukemia,1.68 µM
same,TGI,HL-60(TB) leukemia,5.42 µM
same,GI50,NCI-H460 lung,2.82 µM
same,TGI,NCI-H460 lung,5.41 µM
same,GI50,OVCAR-4 ovarian,5.7 µM
same,TGI,OVCAR-4 ovarian,> 18 µM
same,GI50,HOP-62 NSCLC,5.01 µM
same,TGI,HOP-62 NSCLC,> 18 µM
same,GI50,ACHN renal,> 18 µM
same,TGI,ACHN renal,> 18 µM
same,GI50,SNB-19 CNS,4.39 µM
same,TGI,SNB-19 CNS,14.6 µM
same,GI50,OVCAR-5 ovarian,4.67 µM
same,TGI,OVCAR-5 ovarian,> 18 µM
same,GI50,PC-3 prostate,3.58 µM
same,TGI,PC-3 prostate,7.79 µM
same,GI50,A549 NSCLC,3.29 µM
same,TGI,A549 NSCLC,7.96 µM
same,GI50,KM12 colon,3.45 µM
same,TGI,KM12 colon,6.48 µM
